Results: patent US10081624B2, “Heterocyclic compound” (Takeda Pharmaceutical Company Limited, priority 2014, dated 2018)

Assays:
HDAC6 enzyme = biological target: T1, HDAC6 enzyme (Homo sapiens, UniProt Q9UBN7); test: HDAC6 enzyme inhibitory assay (HDAC-Glo I/II Assay kit); assay type: biochemical; conditions: 1 μM test compound; for inhibition at 1 µM: read-out: HDAC6 inhibitory rate (%) (1 μM)
T1 construct: prepared by transducing full length HDAC1 and HDAC6 genes into Sf-9 insect cells; GST; purchased SignalChem; host or cells: Sf-9 insect cells
T1 sequence (Q9UBN7 1-1215): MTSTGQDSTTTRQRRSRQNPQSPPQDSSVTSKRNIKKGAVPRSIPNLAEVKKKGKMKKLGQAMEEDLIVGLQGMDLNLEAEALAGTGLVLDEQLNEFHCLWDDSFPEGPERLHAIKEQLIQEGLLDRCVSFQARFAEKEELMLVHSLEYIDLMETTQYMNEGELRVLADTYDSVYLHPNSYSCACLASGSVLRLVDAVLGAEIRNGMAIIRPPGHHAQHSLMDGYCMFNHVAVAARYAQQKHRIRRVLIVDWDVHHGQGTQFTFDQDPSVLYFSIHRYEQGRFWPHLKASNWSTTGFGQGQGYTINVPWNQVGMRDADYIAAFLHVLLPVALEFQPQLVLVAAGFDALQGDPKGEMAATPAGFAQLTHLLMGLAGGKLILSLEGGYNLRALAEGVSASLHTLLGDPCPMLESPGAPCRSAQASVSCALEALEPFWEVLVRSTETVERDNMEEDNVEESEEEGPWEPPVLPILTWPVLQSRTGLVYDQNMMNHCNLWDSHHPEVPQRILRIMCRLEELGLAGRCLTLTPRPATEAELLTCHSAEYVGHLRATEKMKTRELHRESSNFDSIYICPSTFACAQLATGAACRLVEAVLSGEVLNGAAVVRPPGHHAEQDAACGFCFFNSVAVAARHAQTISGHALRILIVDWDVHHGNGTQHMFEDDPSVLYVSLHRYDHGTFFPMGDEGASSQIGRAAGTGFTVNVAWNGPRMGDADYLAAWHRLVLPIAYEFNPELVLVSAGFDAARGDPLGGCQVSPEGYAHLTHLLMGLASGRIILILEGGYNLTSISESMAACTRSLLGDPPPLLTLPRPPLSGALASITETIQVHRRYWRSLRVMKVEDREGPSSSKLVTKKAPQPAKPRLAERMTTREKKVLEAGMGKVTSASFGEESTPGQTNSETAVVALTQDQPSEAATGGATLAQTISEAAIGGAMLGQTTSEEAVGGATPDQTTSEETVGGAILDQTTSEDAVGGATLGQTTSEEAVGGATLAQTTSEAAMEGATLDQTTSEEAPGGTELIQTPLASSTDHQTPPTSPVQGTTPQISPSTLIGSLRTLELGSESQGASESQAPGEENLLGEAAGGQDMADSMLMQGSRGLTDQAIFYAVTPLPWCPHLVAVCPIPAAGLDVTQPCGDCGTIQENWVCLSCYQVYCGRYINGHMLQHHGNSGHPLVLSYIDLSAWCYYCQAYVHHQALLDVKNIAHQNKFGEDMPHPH
Outline: (§1)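 Sf-9-expressed GST-purified full-length HDAC1/HDAC6; cpd + enzyme 60 min RT, 24 mM Tris-HCl pH 7.5, 135 mM NaCl, 0.6 mM glutathione, 0.01% Tween-20; substrate-developer 20 min RT; luminescence; no-enzyme wells = 100% inhibition.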

HDAC1 enzyme = biological target: T2, HDAC1 enzyme (Homo sapiens, UniProt Q13547); test: HDAC1 enzyme inhibitory assay (HDAC-Glo I/II Assay kit); assay type: biochemical; conditions: 1 μM test compound; for inhibition at 1 µM: read-out: HDAC1 inhibitory rate (%) (1 μM)
T2 construct: prepared by transducing full length HDAC1 and HDAC6 genes into Sf-9 insect cells; GST; purchased SignalChem; host or cells: Sf-9 insect cells
T2 sequence (Q13547 whole entry): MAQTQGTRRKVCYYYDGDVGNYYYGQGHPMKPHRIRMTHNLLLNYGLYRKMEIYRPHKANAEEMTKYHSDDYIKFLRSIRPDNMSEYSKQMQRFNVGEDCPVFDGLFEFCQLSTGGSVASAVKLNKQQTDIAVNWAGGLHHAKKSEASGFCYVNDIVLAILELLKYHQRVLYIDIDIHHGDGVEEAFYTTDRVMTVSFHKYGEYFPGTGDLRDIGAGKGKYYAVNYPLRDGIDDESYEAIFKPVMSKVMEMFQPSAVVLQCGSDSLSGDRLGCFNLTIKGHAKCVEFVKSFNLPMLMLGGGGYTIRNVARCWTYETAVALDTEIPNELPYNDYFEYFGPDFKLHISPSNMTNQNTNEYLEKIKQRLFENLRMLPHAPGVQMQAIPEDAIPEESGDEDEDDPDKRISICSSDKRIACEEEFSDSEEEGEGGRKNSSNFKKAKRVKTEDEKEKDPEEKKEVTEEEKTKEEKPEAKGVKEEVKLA
Outline: as §1

Row | Structure (SMILES) | inhibition at 1 µM (HDAC6 enzyme) [%] | inhibition at 1 µM (HDAC1 enzyme) [%] | HDAC6 inhibitory rate (%) (1 μM) (HDAC6 enzyme) | HDAC1 inhibitory rate (%) (1 μM) (HDAC1 enzyme)
1 | O=C(NCC1COCCN1C(=O)c1cccc(F)c1)c1ccc(-c2noc(C(F)(F)F)n2)cc1 (centres unmarked) [Example 4, N-((4-(3-fluorobenzoyl)morpholin-3-yl)methyl)-4-(5-(trifluoromethyl)-1,2,4-oxadiazol-3-yl)benzamide] | 100 | 18 |  | 
2 | O=C(NC[C@H]1COCCN1C(=O)c1ccccc1N1CCOCC1)c1ccc(-c2noc(C(F)(F)F)n2)cc1 [Example 46, N-(((3S)-4-(2-(morpholin-4-yl)benzoyl)morpholin-3-yl)methyl)-4-(5-(trifluoromethyl)-1,2,4-oxadiazol-3-yl)benzamide] |  |  | 95 | 12
3 | O=C(NC[C@@H]1COCCN1C(=O)c1csnn1)c1ccc(-c2noc(C(F)(F)F)n2)cc1 [Example 142, N-(((3R)-4-(1,2,3-thiadiazol-4-ylcarbonyl)morpholin-3-yl)methyl)-4-(5-(trifluoromethyl)-1,2,4-oxadiazol-3-yl)benzamide] | 96 | 12 |  | 
4 | Cc1nnsc1C(=O)N1CCOC[C@@H]1CNC(=O)c1ccc(-c2noc(C(F)(F)F)n2)cn1 [Example 195, N-(((3S)-4-((4-methyl-1,2,3-thiadiazol-5-yl)carbonyl)morpholin-3-yl)methyl)-5-(5-(trifluoromethyl)-1,2,4-oxadiazol-3-yl)pyridine-2-carboxamide] | 98 | 40 |  | 
5 | O=C(NCC1COCCN1C(=O)c1cc(Cl)cc(Cl)c1)c1ccc(-c2noc(C(F)(F)F)n2)cc1 (stereo in doubt) [Example 112, N-(((3R)-4-(3,5-dichlorobenzoyl)morpholin-3-yl)methyl)-4-(5-(trifluoromethyl)-1,2,4-oxadiazol-3-yl)benzamide] | 97 | 16 |  | 
6 | O=C(NCC1COCCN1C(=O)c1ccccc1)c1ccc(-c2noc(C(F)(F)F)n2)cn1 (centres unmarked) [Example 181, N-((4-benzoylmorpholin-3-yl)methyl)-5-(5-(trifluoromethyl)-1,2,4-oxadiazol-3-yl)pyridine-2-carboxamide] | 97 | 29 |  | 
7 | O=C(NC[C@H]1COCCN1C(=O)c1ccncc1)c1ccc(-c2noc(C(F)(F)F)n2)cc1 [Example 48, N-(((3S)-4-isonicotinoylmorpholin-3-yl)methyl)-4-(5-(trifluoromethyl)-1,2,4-oxadiazol-3-yl)benzamide] |  | 16 | 98 | 
8 | Cn1nc2ccccc2c1C(=O)N1CCOC[C@@H]1CC(=O)Nc1ccc(-c2noc(C(F)(F)F)n2)cc1 [Example 90, 2-((3S)-4-((2-methyl-2H-indazol-3-yl)carbonyl)morpholin-3-yl)-N-(4-(5-(trifluoromethyl)-1,2,4-oxadiazol-3-yl)phenyl)acetamide] | 97 | 29 |  | 
9 | Cc1ccc(C(=O)N2CCOC[C@H]2CNC(=O)c2ccc(-c3noc(C(F)(F)F)n3)cc2)s1 [Example 144, N-(((3R)-4-((5-methyl-2-thienyl)carbonyl)morpholin-3-yl)methyl)-4-(5-(trifluoromethyl)-1,2,4-oxadiazol-3-yl)benzamide] | 96 | 14 |  | 
10 | O=C(NC[C@H]1COCCN1C(=O)c1ccno1)c1ccc(-c2noc(C(F)(F)F)n2)cc1 [Example 61, N-(((3S)-4-(1,2-oxazol-5-ylcarbonyl)morpholin-3-yl)methyl)-4-(5-(trrfluoromethyl)-1,2,4-oxadiazol-3-yl)benzamide] | 97 | 10 |  | 
11 | COc1cccc(C(=O)N2CCOC[C@@H]2CNC(=O)c2ccc(-c3noc(C(F)(F)F)n3)cc2)c1 [Example 42, N-(((3S)-4-(3-methoxybenzoyl)morpholin-3-yl)methyl)-4-(5-(trifluoromethyl)-1,2,4-oxadiazol-3-yl)benzamide] |  | 16 | 101 | 
12 | N#Cc1ccc(C(=O)N2CCOC[C@@H]2CNC(=O)c2ccc(-c3noc(C(F)(F)F)n3)cc2)cc1 [Example 45, N-(((3S)-4-(4-cyanobenzoyl)morpholin-3-yl)methyl)-4-(5-(trifluoromethyl)-1,2,4-oxadiazol-3-yl)benzamide] |  | 25 | 99 | 
13 | Cc1cc(C(=O)N2CCOC[C@H]2CNC(=O)c2ccc(-c3noc(C(F)(F)F)n3)cc2)on1 [Example 134, N-(((3R)-4-((3-methyl-1,2-oxazol-5-yl)carbonyl)morpholin-3-yl)methyl)-4-(5-(trifluoromethyl)-1,2,4-oxadiazol-3-yl)benzamide] | 97 | 11 |  | 
14 | N#Cc1cc(Cl)cc(C(=O)N2CCOC[C@@H]2CNC(=O)c2ccc(-c3noc(C(F)(F)F)n3)cc2)c1 [Example 86, N-(((3S)-4-(3-chloro-5-cyanobenzoyl)morpholin-3-yl)methyl)-4-(5-(trifluoromethyl)-1,2,4-oxadiazol-3-yl)benzamide] | 98 | 24 |  | 
15 | O=C(NC[C@H]1COCCN1C(=O)c1cc(Cl)cc(Cl)c1)c1ccc(-c2noc(C(F)(F)F)n2)cc1 [Example 37, N-(((3S)-4-(3,5-dichlorobenzoyl)morpholin-3-yl)methyl)-4-(5-(trifluoromethyl)-1,2,4-oxadiazol-3-yl)benzamide] |  |  | 98 | 27

Results, then the compound that gave them:

Row | inhibition at 1 µM (HDAC6 enzyme) [%] | inhibition at 1 µM (HDAC1 enzyme) [%] | HDAC6 inhibitory rate (%) (1 μM) (HDAC6 enzyme) | HDAC1 inhibitory rate (%) (1 μM) (HDAC1 enzyme) | Structure (SMILES)
16 | 96 | 17 |  |  | N#CC1(C(=O)N2CCOC[C@@H]2CNC(=O)c2ccc(-c3noc(C(F)(F)F)n3)cc2)CC1 [Example 55, N-(((3S)-4-((1-cyanocyclopropyl)carbonyl)morpholin-3-yl)methyl)-4-(5-(trifluoromethyl)-1,2,4-oxadiazol-3-yl)benzamide]
17 | 88 | 3 |  |  | O=C(NC[C@H]1COCCN1C(=O)N1CCC(CO)C1)c1ccc(-c2noc(C(F)(F)F)n2)cc1 (stereo partly drawn) [Example 298, N-(((3S)-4-((3-(hydroxymethyl)pyrrolidin-1-yl)carbonyl)morpholin-3-yl)methyl)-4-(5-(trifluoromethyl)-1,2,4-oxadiazol-3-yl)benzamide]
18 | 93 | 8 |  |  | O=C(NCC1COCCN1C(=O)C1CC1)c1ccc(-c2noc(C(F)(F)F)n2)cc1 (centres unmarked) [Example 24, N-((4-(cyclopropylcarbonyl)morpholin-3-yl)methyl)-4-(5-(trifluoromethyl)-1,2,4-oxadiazol-3-yl)benzamide]
19 | 83 | 5 |  |  | O=C(NC[C@H]1COCCN1C(=O)N1CCC2(CC1)COC2)c1ccc(-c2noc(C(F)(F)F)n2)cc1 [Example 282, N-(((3S)-4-(2-oxa-7-azaspiro[3.5]non-7-ylcarbonyl)morpholin-3-yl)methyl)-4-(5-(trifluoromethyl)-1,2,4-oxadiazol-3-yl)benzamide]
20 | 98 |  |  | 3 | O=C(NC[C@H]1COCCN1C(=O)N1CCOCC1CO)c1ccc(-c2noc(C(F)(F)F)n2)cc1 (stereo partly drawn) [Example 310, N-(((3S)-4-((3-(hydroxymethyl)morpholin-4-yl)carbonyl)morpholin-3-yl)methyl)-4-(5-(trifluoromethyl)-1,2,4-oxadiazol-3-yl)benzamide]
21 | 97 | 6 |  |  | O=C(NCC1COCCN1C(=O)N1CCCC1)c1ccc(-c2noc(C(F)(F)F)n2)cc1 (stereo in doubt) [Example 100, N-(((3S)-4-(pyrrolidin-1-ylcarbonyl)morpholin-3-yl)methyl)-4-(5-(trifluoromethyl)-1,2,4-oxadiazol-3-yl)benzamide]
22 | 57 | 9 |  |  | O=C(NCC1COCCN1C(=O)C1CCNC1=O)c1ccc(-c2noc(C(F)(F)F)n2)cc1 (stereo in doubt) [Example 104, N-(((3S)-4-((2-oxopyrrolidin-3-yl)carbonyl)morpholin-3-yl)methyl)-4-(5-(trifluoromethyl)-1,2,4-oxadiazol-3-yl)benzamide]
